Measured values as given in patent US11191811B2, “Osteocalcin as a treatment for frailty associated with aging” (THE TRUSTEES OF COLUMBIA UNIVERSITY IN THE CITY OF NEW YORK, priority 2014, dated 2021).
Entries after “also recorded” stand apart in the source; their conditions may differ.

Assays:
WT mice [1] = assay: Endurance exercise on treadmill until exhaustion; type: in vivo, mouse; settings: for muscle function / exercise capacity of young and old WT mice: 3 to 15 month-old WT mice
Description: First, whether a single intraperitoneal injection of uncarboxylated mouse osteocalcin (osteocalcin) (100 ng/g of body weight) immediately before exercise would improve the exercise capacity of 3 month-old WT mice was tested.
To determine if osteocalcin has the same ability in older mice, 12 and 15 month-old mice that have low circulating osteocalcin levels were injected prior to running with 500 ng/g of body weight of osteocalcin in order to raise their circulating levels substantially. […] This was due to an increase in the phosphorylation of Akt, AMPK and HSL, as well as in glucose uptake, that occurred to a greater extent in oxidative muscles that express Gprc6a at the highest level, than in glycolytic muscles (FIG. 31C-F). Whether chronic delivery of osteocalcin through mini-pumps (90 ng/hour) for 28 days would increase muscle function in 9 month old mice that have the lowest circulating osteocalcin levels was also tested. […] This improved ability to perform exercise was caused in part by an increase in the expression in muscle of the fatty acid transporter Fatp1 and an activation of the Akt pathway (FIG. 31H-).
For exercise studies, all mice were trained before the tests to run on a treadmill (Harvard apparatus) for three days (10 minutes/day). The day of the test, mice were acclimated to the treadmill for 5 minutes followed by 10 minutes running at a constant speed of 17 cm/s, then a gradual increase in the speed up to 30 cm/s. Next, mice were run until exhaustion as defined by the number of times a mouse fell off to the electric grid during one minute (>15). Measurements of muscle strength were carried out using a grip strength meter (Columbus instruments). Values are expressed as the average of five single measurements, taken one minute apart from each other. For all biochemical and metabolic analyses performed, blood/tissues were collected and processed either at rest or at the end of a 40 min run (30 cm/s).

[2] = system: wild type mice injected with gold thioglucose (GTG); assay: GTG-induced obesity; type: in vivo, mouse
Description: FIG. 5. Osteocalcin subcutaneous infusion alleviates GTG-induced obesity in wild-type mice. Wild-type mice were injected with gold thioglucose (GTG) or vehicle to induce hyperphagia and obesity. Two weeks later they were implanted with subcutaneous osmotic pumps infusing […] of recombinant osteocalcin or PBS for 28 days before. Body weight gain was recorded thereafter at indicated days.
For GTG-induced obesity, male and female 4 week-old wild-type (WT) and Osteocalcin^−/− mice (n=10 per group) were injected with […] of GTG
The effect of uncarboxylated osteocalcin on GTG-induced obesity was investigated (FIG. 5). Wild type mice were injected with gold thioglucose (GTG) to induce hyperphagia and obesity or vehicle. Two weeks later they were implanted with subcutaneous osmotic pumps infusing 1 ng/hr of recombinant uncarboxylated osteocalcin or PBS for 28 days. […] At 28 days, body weight was reduced by about 15% with uncarboxylated osteocalcin treatment.

WT mice [3] = assay: D/LT and EPMT in adult WT mice with ICV infusion; type: in vivo, mouse
Description: FIG. 14. Osteocalcin improves cognitive function in adult wild-type (WT) mice. Results from dark and light (DLT) and elevated plus maze tests (EPMT) performed in 3-month old WT mice infused ICV with vehicle (PBS) or recombinant uncarboxylated osteocalcin (Ocn) (3, 10, 30 ng/hour) are shown. (A) DLT measuring the latency to enter, the number of entries, and the time spend in lit compartment. (B) EPMT measuring the number of entries into open arms and the time spend in […].
Each mouse was allowed to explore the apparatus for 5 min. Global activity was assessed by measuring the number of entries […] (David et al, 2009, Neuron 62:479-493). Anxiety was assessed by comparing the time spent in the open arms.
The test was performed in a quiet, darkened room. Mice were individually housed in cages containing a handful of bedding from their home cage and acclimated to the room at least 1 h before the test. Naïve mice were placed individually in the testing chamber in the dark compartment. The test was 5 min in duration, and time spent and number of entries in light compartments were recorded a highly trained observer, blind to the genotype of the mice.
To determine if osteocalcin is sufficient to improve cognitive function in adult mice, WT 2-month old mice were implanted with ICV pumps delivering vehicle (PBS), or 3, 10, or 30 ng/hr recombinant uncarboxylated full-length mouse osteocalcin for a period of one month. After one month of infusion, animals were subjected to behavioral testing. […] This improvement is evidenced by an increase in the exploration of the lit compartment and open arms in the D/LT and EMP tests, respectively (FIG. 14A-B).

WT myotubes = assay: Western blot of Akt phosphorylation (Ser473) in cultured myotubes; type: cell-based, mouse; settings: Ocn 10 ng/ml
Description: FIG. 26. Osteocalcin signaling in myofibers promotes glucose uptake. (A) VO2, (B) VO2 max and (C) RER in female Gprc6af/f and Gprc6aMck−/− mice during a gradual speed increase test. (D-E) Uptake of ^3H-2-deoxyglucose (^3H-2-DG) in WT and Gprc6a−/− myotubes treated with vehicle or Ocn (dose indicated in panel D, 10 ng/ml in panel E). (F) Uptake of ^3H-2-DG in glycolytic (Gly—white quadriceps) and oxidative (Ox—red quadriceps) muscles after a single bout of exercise in Gprc6af/f and Gprc6aMck^−/− mice (n=4 per group). (G) Blood glucose levels in Gprc6af/f and Gprc6aMck−/− mice after running on a treadmill until exhaustion (n=4 per group). (H) Blood glucose levels in Gprc6af/f and Gprc6aHsa−/− mice after running on a treadmill until exhaustion (n=4 per group). (I) Western blot analyses of Akt phosphorylation (Ser473) in WT myotubes treated with Ocn (10 ng/ml) and in muscles of WT mice injected with Ocn (500 ng/g) after a single bout of exercise. (J) Western blot analyses of Akt phosphorylation (Ser473) in Gprc6af/f and Gprc6aMck−/− muscles after a single bout of exercise. (K) Glycogen content and glycogen breakdown in Gprc6af/f and Gprc6aMck−/− muscles at rest and after exercise.
Culture of skeletal muscle myoblasts from 7 day-old mice was performed as described (Gharaibeh et al., 2008, Nature Protocols 3:1501-1509). […]

[4] = 3 or 10 ng/hour ICV for one month

uncarboxylated osteocalcin: Recombinant uncarboxylated mouse osteocalcin, bacterially produced, purified on glutathione beads and cleaved from the GST subunit by thrombin (YLGASVPSPDPLEPTREQCELNPACDELSDQYGLKTAYKRIYGITI)
increase of time and distance run on the treadmill before exhaustion (WT mice [1]; 3 month-old WT mice, single intraperitoneal injection 100 ng/g of body weight immediately before exercise): over 20% | muscle function / exercise capacity of young and old WT mice (WT mice [1]; listed as Osteocalcin): increases | muscle function / exercise capacity of young and old WT mice (WT mice [1]; listed as osteocalcin): can improve | time and distance run / exercise capacity of older mice (WT mice [1]; 12 and 15 month-old mice, 500 ng/g of body weight injected prior to running): the exercise capacity of 3 month-old mice; also recorded: the same time and distance as 3 month-old untreated mice; also recorded: run like young mice | time and distance run on the treadmill before exhaustion (WT mice [1]; mini-pumps 90 ng/hour for 28 days, 9 month old mice): significant increase | increase of distance run (WT mice [1]; wild-type mice, simple injection while they run on a treadmill): 20% | exercise capacity of young mice (WT mice [1]; young (3 month-old) WT mice, exogenous osteocalcin): increases; also recorded: sufficient to increase | body weight gain ([2]; 1 ng/hr subcutaneous osmotic pumps for 28 days, from 7 days on): significantly reduced | reduction of body weight ([2]; 1 ng/hr, at 28 days): about 15% | GTG-induced obesity ([2]; subcutaneous infusion 28 days (FIG. 5 title)): alleviates | exploration of the lit compartment (D/LT) (WT mice [3]; [4]): increase | exploration of the open arms (EPMT) (WT mice [3]; [4]): increase | anxiety-like behavior (WT mice [3]; 3 or 10 ng/hour ICV for one month, WT 2-month old mice): decrease | cognitive function (WT mice [3]; adult WT mice, ICV 3, 10, 30 ng/hour (FIG. 14 title)): improves | phosphorylation of Akt in cultured myotubes (WT myotubes): induced
